Measured values as given in US20090137625A1, “Novel Enantiomers and Their Use as Monoamine Neurotransmitter Re-Uptake Inhibitors” (priority 2005, published 2009).
Where a name gives a salt, the structure may show the parent alone. Read-outs that look alike come from different tables or passages of the source.

How the values were obtained:
[1] = biological target: T1, DA-uptake (reuptake of dopamine in synaptosomes) (Rattus norvegicus, UniProt P23977); experiment: Inhibition of dopamine (DA) reuptake in synaptosomes; type: biochemical
T1 construct: in synaptosomes as described in WO 97/16451; from tissue
T1 sequence (P23977 whole entry): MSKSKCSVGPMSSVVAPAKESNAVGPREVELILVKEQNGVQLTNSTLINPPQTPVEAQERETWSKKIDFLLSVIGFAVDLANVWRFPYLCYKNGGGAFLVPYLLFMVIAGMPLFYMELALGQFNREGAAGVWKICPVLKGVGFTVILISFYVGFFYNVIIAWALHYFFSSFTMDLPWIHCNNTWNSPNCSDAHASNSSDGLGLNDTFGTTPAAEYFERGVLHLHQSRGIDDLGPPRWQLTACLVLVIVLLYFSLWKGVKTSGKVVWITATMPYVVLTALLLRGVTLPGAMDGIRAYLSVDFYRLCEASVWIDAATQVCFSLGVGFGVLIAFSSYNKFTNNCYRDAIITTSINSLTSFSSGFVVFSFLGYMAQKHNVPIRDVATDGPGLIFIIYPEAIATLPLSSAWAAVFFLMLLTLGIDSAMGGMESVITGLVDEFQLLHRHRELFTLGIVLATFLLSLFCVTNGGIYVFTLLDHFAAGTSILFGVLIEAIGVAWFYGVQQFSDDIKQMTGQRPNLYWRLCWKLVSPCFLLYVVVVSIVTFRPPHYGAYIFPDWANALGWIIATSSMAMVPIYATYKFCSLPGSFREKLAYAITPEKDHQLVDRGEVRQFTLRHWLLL

[2] = biological target: T2, NA-uptake (reuptake of noradrenaline in synaptosomes) (Rattus norvegicus, UniProt Q9WTR4); experiment: Inhibition of noradrenaline (NA) reuptake in synaptosomes; type: biochemical
T2 construct: in synaptosomes as described in WO 97/16451; from tissue
T2 sequence (Q9WTR4 1-597): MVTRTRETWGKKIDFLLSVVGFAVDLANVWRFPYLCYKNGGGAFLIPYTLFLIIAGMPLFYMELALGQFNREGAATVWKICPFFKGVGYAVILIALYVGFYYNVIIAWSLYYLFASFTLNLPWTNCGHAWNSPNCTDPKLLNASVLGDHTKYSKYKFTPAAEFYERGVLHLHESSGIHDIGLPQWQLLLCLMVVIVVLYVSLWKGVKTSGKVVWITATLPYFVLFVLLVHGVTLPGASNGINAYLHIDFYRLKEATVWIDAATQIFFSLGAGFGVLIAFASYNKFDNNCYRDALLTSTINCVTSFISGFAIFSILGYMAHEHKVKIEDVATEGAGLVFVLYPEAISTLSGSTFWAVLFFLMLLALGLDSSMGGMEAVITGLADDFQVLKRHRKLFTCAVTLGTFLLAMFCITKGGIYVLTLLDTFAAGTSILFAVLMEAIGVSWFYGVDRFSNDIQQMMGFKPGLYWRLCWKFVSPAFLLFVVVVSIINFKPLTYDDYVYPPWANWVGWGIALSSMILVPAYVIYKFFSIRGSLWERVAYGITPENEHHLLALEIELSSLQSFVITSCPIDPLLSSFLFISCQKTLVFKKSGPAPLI

[3] = biological target: T3, 5-HT-uptake (reuptake of serotonine in synaptosomes) (Rattus norvegicus, UniProt P31652); experiment: Inhibition of serotonine (5-HT) reuptake in synaptosomes; type: biochemical
T3 construct: in synaptosomes as described in WO 97/16451; from tissue
T3 sequence (P31652 whole entry): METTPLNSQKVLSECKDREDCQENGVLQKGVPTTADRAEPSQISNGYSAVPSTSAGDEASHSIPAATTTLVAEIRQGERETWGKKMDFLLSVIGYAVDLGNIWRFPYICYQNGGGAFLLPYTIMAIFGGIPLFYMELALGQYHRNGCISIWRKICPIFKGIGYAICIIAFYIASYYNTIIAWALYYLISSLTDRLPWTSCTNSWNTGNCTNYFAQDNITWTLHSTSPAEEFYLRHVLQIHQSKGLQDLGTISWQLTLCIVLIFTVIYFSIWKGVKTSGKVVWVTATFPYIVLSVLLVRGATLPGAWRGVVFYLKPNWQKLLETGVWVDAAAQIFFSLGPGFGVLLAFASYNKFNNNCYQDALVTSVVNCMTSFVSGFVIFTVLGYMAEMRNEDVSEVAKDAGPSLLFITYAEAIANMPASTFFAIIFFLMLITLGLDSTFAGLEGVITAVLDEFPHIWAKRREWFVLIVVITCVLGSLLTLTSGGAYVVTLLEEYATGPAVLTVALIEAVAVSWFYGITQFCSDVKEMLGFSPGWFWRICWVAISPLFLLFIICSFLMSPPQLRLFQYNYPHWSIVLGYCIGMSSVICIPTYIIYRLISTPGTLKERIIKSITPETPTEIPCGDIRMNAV

[4] = synaptosomes, 3H-DA, read-out: DA-uptake IC50
[5] = synaptosomes, 3H-NA, read-out: NA-uptake IC50
[6] = synaptosomes, 3H-5-HT, read-out: 5-HT-uptake IC50

Compound | melting point | IC50 [1, 4] | IC50 [2, 5] | IC50 [3, 6] | also measured
C1=C(c2ccc3ccccc3c2)CC2CCC1N2 (single isomer, unassigned; (+)) (as salt: tartaric acid salt) [1st compound of method D, (+)-3-Naphthalen-2-yl-8-aza-bicyclo[3.2.1]oct-2-ene] | 183 to 189 °C |  |  |  | 
Clc1ccc(C2=CC3CCC(C2)N3)cc1 (single isomer, unassigned; (+)) [1st compound of method A, (+)-3-(4-Chlorophenyl)-8-H-8-aza-bicyclo[3.2.1]oct-2-ene] |  | 260 nM | 28 nM | 10 nM | 
C1=C(c2ccc3ccccc3c2)CC2CCC1N2 (single isomer, unassigned; (+)) [1st compound of method D, (+)-3-Naphthalen-2-yl-8-aza-bicyclo[3.2.1]oct-2-ene] |  |  |  |  | IC50 [1]: 58 nM; IC50 [2]: 13 nM; IC50 [3]: 0.34 nM
CN1C2C=C(c3ccc4ccccc4c3)CC1CC2 (single isomer, unassigned; (-)) (as salt: hydrochloric acid salt) [1st compound of method E, (−)-8-Methyl-3-(naphthalen-2-yl)-8-aza-bicyclo[3.2.1]oct-2-ene] | 265 °C |  |  |  | 
CN1C2C=C(c3ccc4ccccc4c3)CC1CC2 (single isomer, unassigned; (-)) [1st compound of method E, (−)-8-Methyl-3-(naphthalen-2-yl)-8-aza-bicyclo[3.2.1]oct-2-ene] |  | 34 nM | 18 nM | 0.23 nM | 
